Test results reported in BindingDB's records for patent US20240376113 (Volastra Therapeutics, 2024).

Target: T1, Ectonucleotide pyrophosphatase/phosphodiesterase family member 1 (Homo sapiens, UniProt P22413)
T1 sequence (P22413 whole entry): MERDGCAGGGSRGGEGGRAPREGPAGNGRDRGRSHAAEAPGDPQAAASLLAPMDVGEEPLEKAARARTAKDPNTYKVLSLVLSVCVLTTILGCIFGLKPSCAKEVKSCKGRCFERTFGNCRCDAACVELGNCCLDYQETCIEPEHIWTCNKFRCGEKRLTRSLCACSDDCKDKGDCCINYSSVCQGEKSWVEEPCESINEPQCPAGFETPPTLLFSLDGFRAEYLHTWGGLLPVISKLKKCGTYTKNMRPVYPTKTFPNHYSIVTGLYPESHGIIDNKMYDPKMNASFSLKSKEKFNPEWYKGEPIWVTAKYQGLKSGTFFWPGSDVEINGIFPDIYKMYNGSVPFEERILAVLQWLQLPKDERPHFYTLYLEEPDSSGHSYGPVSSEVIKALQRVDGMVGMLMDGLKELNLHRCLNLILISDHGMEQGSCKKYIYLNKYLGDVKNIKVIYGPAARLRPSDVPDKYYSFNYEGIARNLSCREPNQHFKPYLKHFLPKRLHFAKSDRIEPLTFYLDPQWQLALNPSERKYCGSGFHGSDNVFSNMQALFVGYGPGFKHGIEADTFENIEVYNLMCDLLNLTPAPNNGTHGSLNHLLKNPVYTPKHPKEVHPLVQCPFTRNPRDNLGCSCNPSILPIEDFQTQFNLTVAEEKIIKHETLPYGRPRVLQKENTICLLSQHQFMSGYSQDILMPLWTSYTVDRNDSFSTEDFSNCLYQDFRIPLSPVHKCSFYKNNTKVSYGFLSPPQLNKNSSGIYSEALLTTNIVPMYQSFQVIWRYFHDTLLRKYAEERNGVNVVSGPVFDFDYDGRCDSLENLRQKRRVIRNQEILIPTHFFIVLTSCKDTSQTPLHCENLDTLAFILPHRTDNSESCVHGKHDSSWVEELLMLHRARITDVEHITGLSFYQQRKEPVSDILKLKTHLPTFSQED
Assay: Inhibition of ENPP1 hydrolysis of 2′,3′-cGAMP (Assay 1)
Method: Test compounds were plated in a 3× dilution scheme in a 384 well plate.

| Ki [µM] | Structure (SMILES) |
| --- | --- |
| 0.028 | Cc1c(Cc2ccc(S(C)(=N)=O)cc2)c(N)cc2ncnn12 (configuration not stated) [US20240376113, Compound 89] |
| 0.000138 | Cc1c(Cc2ccc(S(C)(=N)=O)cc2)c(N(C)C)nc2ncnn12 (configuration not stated) [US20240376113, Compound 86] |
